US9630961B2, “Arginine methyltransferase inhibitors and uses thereof” (Epizyme, Inc., priority 2013, dated 2017)

Target: T1, PRMT8 (Homo sapiens, UniProt Q9NR22)
T1 construct: Full-length human PRMT8 (NM_019854.4) isoform 1 transcript clone; made in house; host or cells: E. coli BL21(DE3) Gold
Test: PRMT8 Biochemical Assay (3H-SAM Flashplate, peptide substrate)
Details: 30 min preincubation, room temperature
Excerpt: S-adenosylmethionine (SAM), S-adenosylhomocysteine (SAH), bicine, Tween20, dimethylsulfoxide (DMSO), bovine skin gelatin (BSG), isopropyl-β-D-thiogalactopyranoside (IPTG), and Tris(2-carboxyethyl)phosphine hydrochloride solution (TCEP) were purchased from Sigma-Aldrich at the highest level of purity possible. ^3H-SAM was purchase from American Radiolabeled Chemicals with a specific activity of 80 Ci/mmol. 384-well streptavidin Flashplates were purchased from PerkinElmer.
Peptide representative of human histone H4 residues 31-45 was synthesized with an N-terminal linker-affinity tag motif and a C-terminal amide cap by 21st Century Biochemicals. The peptide was purified by high-performance liquid chromatography (HPLC) to greater than 95% purity and confirmed by liquid chromatography mass spectrometry (LC-MS). The sequence was Biot-Ahx-[…]-amide (SEQ ID NO.:8).
The resulting construct encodes an N-terminal GST tag and a thrombin cleavage sequence ([…] […] […] […]) (SEQ ID NO.:9) fused directly to Met 1 of PRMT8.
E. coli (BL21(DE3) Gold, Stratagene) made competent by the CaCl2 method were transformed with the PRMT8 construct and ampicillin selection. Protein over-expression was accomplished by growing the PRMT8 expressing E. coli clone and inducing expression with 0.3 mM IPTG at 16° C. The culture was grown for 12 hours, harvested by centrifugation, and stored at −80° C. for purification.
The column was washed with 50 mM phosphate buffer, 100 mM NaCl, 5% glycerol, 5 mM (3-mercaptoethanol, pH 7.8 and PRMT8 was eluted by 100 mM phosphate in the same buffer. Protein was concentrated and buffer was exchanged to 50 mM Tris, 300 mM NaCl, 10% glycerol, 5 mM β-mercaptoethanol, pH 7.8 by ultrafiltration. The purity of recovered protein was 89%.
General Procedure for PRMT8 Enzyme Assays on Peptide Substrates.
The assays were all performed in a buffer consisting of 20 mM Bicine (pH=7.6), 1 mM TCEP, 0.005% BSG, and 0.002% Tween 20, prepared on the day of use. Compounds in 100% DMSO (1 ul) were spotted into a polypropylene 384-well V-bottom plates (Greiner) using a Platemate Plus outfitted with a 384-channel head (Thermo Scientific). DMSO (1 ul) was added to Columns 11, 12, 23, 24, rows A-H for the maximum signal control and 1 ul of SAH, a known product and inhibitor of PRMT8, was added to columns 11, 12, 23, 24, rows I-P for the minimum signal control. A cocktail (40 ul) containing the PRMT8 enzyme was added by Multidrop Combi (Thermo-Fisher). The compounds were allowed to incubate with PRMT8 for 30 min at room temperature, then a cocktail (10 ul) containing ^3H-SAM and peptide was added to initiate the reaction (final volume=51 ul). The final concentrations of the components were as follows: PRMT8 was 1.5 nM, ^3H-SAM was 50 nM, non-radiolabeled SAM was 550 nM, peptide was 150 nM, SAH in the minimum signal control wells was 1 mM, and the DMSO concentration was 2%. The assays were stopped by the addition of non-radiolabeled SAM (10 ul) to a final concentration of 400 uM, which dilutes the ^3H-SAM to a level where its incorporation into the peptide substrate is no longer detectable. 50 ul of the reaction in the 384-well polypropylene plate was then transferred to a 384-well Flashplate and the biotinylated peptides were allowed to bind to the streptavidin surface for at least 1 hour before being washed once with 0.1% Tween20 in a Biotek ELx405 plate washer. The plates were then read in a PerkinElmer TopCount plate reader to measure the quantity of ^3H-labeled peptide bound to the Flashplate surface, measured as disintegrations per minute (dpm) or alternatively, referred to as counts per minute (cpm).
Where dpm=disintegrations per minute, cmpd=signal in assay well, and min and max are the respective minimum and maximum signal controls.
Where top and bottom are the normally allowed to float, but may be fixed at 100 or 0 respectively in a 3-parameter fit. […]

T1 sequence (Q9NR22 whole entry, canonical isoform): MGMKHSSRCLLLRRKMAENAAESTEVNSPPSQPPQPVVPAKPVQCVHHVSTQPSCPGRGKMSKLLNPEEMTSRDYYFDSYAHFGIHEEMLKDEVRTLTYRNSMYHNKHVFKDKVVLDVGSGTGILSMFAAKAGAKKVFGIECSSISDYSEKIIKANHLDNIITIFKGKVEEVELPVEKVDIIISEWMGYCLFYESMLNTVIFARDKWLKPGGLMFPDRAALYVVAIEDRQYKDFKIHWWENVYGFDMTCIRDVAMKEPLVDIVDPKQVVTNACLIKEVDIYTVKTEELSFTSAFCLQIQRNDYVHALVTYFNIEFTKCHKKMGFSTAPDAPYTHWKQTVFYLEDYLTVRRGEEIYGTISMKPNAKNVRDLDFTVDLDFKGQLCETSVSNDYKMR

| Compound | IC50 [nM] |
| --- | --- |
| CC(C)Cn1cc(-c2n[nH]cc2CN(C)CCN)cn1 [Compound 23, N^1-((2′-isobutyl-3,4′-bi(1H-pyrazol)-4-yl)methyl)-N^1-methylethane-1,2-diamine] | 101 to 1000 |
| CN(CCN)Cc1c[nH]nc1-c1cnn(-c2ccccc2)c1 [Compound 17] | 101 to 1000 |
| CN(CCN)Cc1c[nH]nc1-c1ccc2[nH]ncc2c1 [Compound 27, N^1-((3-(1H-indazol-5-yl)-1H-pyrazol-4-yl)methyl)-N^1-methylethane-1,2-diamine] | 101 to 1000 |
| CN(CCN)Cc1c[nH]nc1-c1ccc2cnn(C)c2c1 [Compound 19, N^1-methyl-N^1-((3-(1-methyl-1H-indazol-6-yl)-1H-pyrazol-4-yl)methyl)ethane-1,2-diamine] | 101 to 1000 |
| CN(CCN)Cc1c[nH]nc1-c1cnn(Cc2ccccc2)c1 [Compound 24, N^1-((1′-benzyl-3,4′-bi(1H-pyrazol)-4-yl)methyl)-N^1-methylethane-1,2-diamine] | 101 to 1000 |
| CN(CCN)Cc1c[nH]nc1-c1cnc(C2CC2)nc1 [Compound 28] | 1010 to 3000 |
| CN(CCN)Cc1c[nH]nc1-c1cnn(CCO)c1 [Compound 18] | 1010 to 3000 |
| CN(CCN)Cc1c[nH]nc1-c1ccc2scnc2c1 [Compound 9] | 101 to 1000 |
| Cc1noc(C)c1-c1n[nH]cc1CN(C)CCN [Compound 10] | ≥ 10000 |
| CN(CCN)Cc1c[nH]nc1-c1cnc2[nH]ccc2c1 [Compound 13] | 101 to 1000 |
| CN(CCN)Cc1c[nH]nc1-c1cccc2[nH]ncc12 [Compound 30] | 3010 to 10000 |
| COc1ncc(-c2n[nH]cc2CN(C)CCN)cn1 [Compound 11] | 1010 to 3000 |

Second part, the compound after the results:

| IC50 [nM] | Compound |
| --- | --- |
| 101 to 1000 | CN(CCN)Cc1c[nH]nc1-c1ccc2nccn2c1 [Compound 21, N^1-((3-(imidazo[1,2-a]pyridin-6-yl)-1H-pyrazol-4-yl)methyl)-N^1-methylethane-1,2-diamine] |
| 3010 to 10000 | CN(CCN)Cc1c[nH]nc1-c1ccnn1C [Compound 15] |
| 3010 to 10000 | CN(CCN)Cc1c[nH]nc1-c1cccs1 [Compound 5] |
| ≥ 10000 | CN(CCN)Cc1c[nH]nc1-c1cc[nH]n1 [Compound 14] |
| 101 to 1000 | CC(C)n1cc(-c2n[nH]cc2CN(C)CCN)cn1 [Compound 22] |
| 1010 to 3000 | CN(CCN)Cc1c[nH]nc1-c1cn[nH]c1 [Compound 12] |
| 1010 to 3000 | CN(CCN)Cc1c[nH]nc1-c1ccsc1 [Compound 3] |
| 1010 to 3000 | CN(CCN)Cc1c[nH]nc1-c1ccc2ncnn2c1 [Compound 20] |
| 101 to 1000 | CCn1cc(-c2n[nH]cc2CN(C)CCN)cn1 [Compound 16] |
| 3010 to 10000 | CN(CCN)Cc1c[nH]nc1-c1ccco1 [Compound 6] |
| 1010 to 3000 | CN(CCN)Cc1c[nH]nc1-c1cncnc1 [Compound 4] |
| 3010 to 10000 | CN(CCN)Cc1c[nH]nc1-c1cnn(C)c1 [Compound 8] |
| 1010 to 3000 | CN(CCN)Cc1c[nH]nc1-c1ccoc1 [Compound 7] |
| 3010 to 10000 | CN(CCN)Cc1c[nH]nc1-c1ccc[nH]1 [Compound 29] |
